Values of other authors, collected in patent US20250228877A1, “MANAGEMENT OF SKIN AILMENTS” (priority 2021, published 2025).

Assays:
[1] = 1-4% IP-6 in drinking water; measured by gadolinium uptake
[2] = system: human umbilical vein endothelial cell (HUVEC) tube formation; conditions: after 24 hours; reconstituted extracellular matrix
[3] = 7 days following treatment

In the case of O=P(O)(O)O[C@H]1[C@H](OP(=O)(O)O)[C@@H](OP(=O)(O)O)[C@H](OP(=O)(O)O)[C@@H](OP(=O)(O)O)[C@H]1OP(=O)(O)O [IP-6, myo-inositol hexakisphosphate], the “angiogenesis evaluated by micro-vessel density (MVD)” value [1] is listed as “inhibited angiogenesis”, the number of capillaries [2] is listed as “reduction” and the “vascularity (number of blood vessel formation)” value [3] is listed as “inhibited vascularity”.
